pIC50: −log10 of the molar value.
Tests used:
Type in all cases: cell-based
[1] = target: T1, human EGFR exon 20 insertion NPG (H773_V774insNPG) (Homo sapiens, UniProt P00533, INS772GNP); assay: Ba/F3-EGFR-Exon20-NPG cell anti-proliferative assay (CellTiter 96 MTS, 72 h); settings: Ba/F3-EGFR-Exon20-NPG cells
T1 construct: expressed in transfected cells; host or cells: Ba/F3 (murine pro-B) cells transduced with lentivirus from pLVX-IRES puro
Method in brief: (§1)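 Viable-cell readout used absorbance at 490 nm of MTS-derived formazan, 2 h after reagent addition, following 72 h compound treatment at 37 °C, 5% CO2. Cells: puromycin-selected, IL-3-depleted Ba/F3 expressing EGFR exon 20 ASV or NPG; dosing 4-fold series from 10,000 nM.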

[2] = target: T2, human EGFR E746-A750 deletion and T790M Mutation (Homo sapiens, UniProt P00533, DEL746-750/T790M); assay: Ba/F3-EGFR-Del/T790M cell anti-proliferative assay (CellTiter 96 MTS, 72 h); settings: Ba/F3-EGFR-Del/T790M cells
T2 construct: expressed in transfected cells; host or cells: Ba/F3 (murine pro-B) cells transduced with lentivirus from pLVX-IRES puro
Method in brief: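 Compound exposure: 72 h, 37 °C, 4-fold series topping at 10,000 nM. Target cells are Ba/F3 transduced with EGFR exon 19 deletion plus T790M, selected by puromycin and IL-3 withdrawal. Viable cell number inferred from MTS metabolic conversion, A490 read 2 h after reagent addition.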

[3] = target: T3, human EGFR L858R and T790M double mutation (Homo sapiens, UniProt P00533, L858R/T790M); assay: Ba/F3-EGFR L858R/T790M cell anti-proliferative assay (CellTiter 96 MTS, 72 h); settings: Ba/F3-EGFR L858R/T790M cells
T3 construct: expressed in transfected cells; host or cells: Ba/F3 (murine pro-B) cells transduced with lentivirus from pLVX-IRES puro
Description: An expression vector, pLVX-IRES puro (Clontech) coding for human EGFR L858R and T790M double mutation, was transfected into HEK293 cells by the Trans-Lentiviral ORF Packaging System (Thermo Scientific), to produce virus encoding EGFR L858R and T790M double mutations. Ba/F3 (DSMZ) cells maintained in RPMI 1640 medium supplemented with 10% fetal bovine serum, 200 μM L-glutamine/l 200 μg/mL penicillin/200 μg/mL streptomycin (Life Technology) and 10 ng/mL IL-3 (R&D system), were infected by EGFR L858R and T790M double mutation virus and subsequently selected by puromycin (Life Technology) selection and IL-3 depletion. […] The anti-proliferative activity of compounds was determined as follows: BaF3-EGFR L858R/T790M cells seeded in 96 well plates (2500 cells/well) were treated with test compound (dissolved in DMSO) at a series of concentrations (4-fold dilution, top concentration: 10,000 nM). The plates were incubated for 72 h in a 37° C. incubator with 5% CO2, and the number of viable cells in each well were measured indirectly by CellTiter 96® Aqueous One Solution Cell Proliferation Assay (Promega; this assay is a colorimetric method for determining the number of viable cells through measurement of their metabolic activity by detection of enzymatic conversion of tetrazolium salts into blue formazan derivatives). Reagent (20 μL) was added into each well, and the plates were returned to the incubator for 2 h. The absorbance in each well was then measured at 490 nm using an Envision plate reader (Perkin Elmer).

[4] = target: T4, Her2 exon 20 YVMA insertion (A775_G776ins YVMA) (Homo sapiens, UniProt P04626, INS775YVMA); assay: Ba/F3-Her2 Exon20 YVMA cell anti-proliferative assay (CellTiter 96 MTS, 72 h); settings: Ba/F3-Her2 Exon20 YVMA cells
T4 construct: expressed in transfected cells; host or cells: Ba/F3 (murine pro-B) cells transduced with lentivirus from pLVX-IRES puro
Method in brief: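 Anti-proliferation: compound series (top 10,000 nM, 4-fold steps) was applied to Ba/F3-Her2 Exon20 YVMA cells grown without IL-3 for 72 h. Viability was read colorimetrically (CellTiter 96 Aqueous One, A490, 2 h reagent incubation).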

[5] = target: T5, human EGFR exon 20 insertion ASV (V769_D770insASV) (Homo sapiens, UniProt P00533, INS769ASV); assay: Ba/F3-EGFR-Exon20-ASV cell anti-proliferative assay (CellTiter 96 MTS, 72 h); settings: Ba/F3-EGFR-Exon20-ASV cells
T5 construct: expressed in transfected cells; host or cells: Ba/F3 (murine pro-B) cells transduced with lentivirus from pLVX-IRES puro
Method in brief: as §1

T1 sequence (P00533 with tags, fused parts or gaps INS772GNP): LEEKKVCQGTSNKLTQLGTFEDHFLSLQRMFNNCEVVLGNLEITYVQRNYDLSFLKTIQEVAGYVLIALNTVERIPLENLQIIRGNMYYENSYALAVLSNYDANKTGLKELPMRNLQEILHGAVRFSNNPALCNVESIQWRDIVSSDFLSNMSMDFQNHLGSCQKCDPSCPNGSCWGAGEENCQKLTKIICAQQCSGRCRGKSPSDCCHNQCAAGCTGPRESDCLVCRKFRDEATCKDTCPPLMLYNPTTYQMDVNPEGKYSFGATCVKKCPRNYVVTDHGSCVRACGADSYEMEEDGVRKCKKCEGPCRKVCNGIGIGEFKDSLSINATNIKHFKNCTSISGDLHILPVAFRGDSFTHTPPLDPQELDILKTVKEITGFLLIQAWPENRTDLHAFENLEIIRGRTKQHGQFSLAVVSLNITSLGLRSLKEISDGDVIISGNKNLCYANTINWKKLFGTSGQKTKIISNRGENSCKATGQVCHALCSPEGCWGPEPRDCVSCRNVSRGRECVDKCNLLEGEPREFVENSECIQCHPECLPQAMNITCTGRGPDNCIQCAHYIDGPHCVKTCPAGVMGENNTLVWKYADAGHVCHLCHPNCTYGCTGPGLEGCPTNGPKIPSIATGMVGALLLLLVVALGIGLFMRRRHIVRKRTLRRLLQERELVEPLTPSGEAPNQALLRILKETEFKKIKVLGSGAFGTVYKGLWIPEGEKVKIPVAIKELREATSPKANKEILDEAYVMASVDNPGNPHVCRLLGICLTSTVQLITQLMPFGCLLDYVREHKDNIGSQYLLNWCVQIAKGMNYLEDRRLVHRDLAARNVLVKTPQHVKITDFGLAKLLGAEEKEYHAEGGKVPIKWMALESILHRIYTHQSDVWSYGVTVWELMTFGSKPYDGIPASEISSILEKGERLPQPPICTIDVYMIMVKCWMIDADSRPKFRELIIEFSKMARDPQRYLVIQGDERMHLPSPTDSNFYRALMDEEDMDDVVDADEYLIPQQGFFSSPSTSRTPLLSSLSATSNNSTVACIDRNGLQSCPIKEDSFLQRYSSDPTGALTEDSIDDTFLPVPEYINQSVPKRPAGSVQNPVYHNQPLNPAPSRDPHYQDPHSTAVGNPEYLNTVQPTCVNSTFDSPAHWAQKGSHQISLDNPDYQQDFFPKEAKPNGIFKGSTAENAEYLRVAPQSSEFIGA
T2 sequence (P00533 with tags, fused parts or gaps DEL746-750/T790M): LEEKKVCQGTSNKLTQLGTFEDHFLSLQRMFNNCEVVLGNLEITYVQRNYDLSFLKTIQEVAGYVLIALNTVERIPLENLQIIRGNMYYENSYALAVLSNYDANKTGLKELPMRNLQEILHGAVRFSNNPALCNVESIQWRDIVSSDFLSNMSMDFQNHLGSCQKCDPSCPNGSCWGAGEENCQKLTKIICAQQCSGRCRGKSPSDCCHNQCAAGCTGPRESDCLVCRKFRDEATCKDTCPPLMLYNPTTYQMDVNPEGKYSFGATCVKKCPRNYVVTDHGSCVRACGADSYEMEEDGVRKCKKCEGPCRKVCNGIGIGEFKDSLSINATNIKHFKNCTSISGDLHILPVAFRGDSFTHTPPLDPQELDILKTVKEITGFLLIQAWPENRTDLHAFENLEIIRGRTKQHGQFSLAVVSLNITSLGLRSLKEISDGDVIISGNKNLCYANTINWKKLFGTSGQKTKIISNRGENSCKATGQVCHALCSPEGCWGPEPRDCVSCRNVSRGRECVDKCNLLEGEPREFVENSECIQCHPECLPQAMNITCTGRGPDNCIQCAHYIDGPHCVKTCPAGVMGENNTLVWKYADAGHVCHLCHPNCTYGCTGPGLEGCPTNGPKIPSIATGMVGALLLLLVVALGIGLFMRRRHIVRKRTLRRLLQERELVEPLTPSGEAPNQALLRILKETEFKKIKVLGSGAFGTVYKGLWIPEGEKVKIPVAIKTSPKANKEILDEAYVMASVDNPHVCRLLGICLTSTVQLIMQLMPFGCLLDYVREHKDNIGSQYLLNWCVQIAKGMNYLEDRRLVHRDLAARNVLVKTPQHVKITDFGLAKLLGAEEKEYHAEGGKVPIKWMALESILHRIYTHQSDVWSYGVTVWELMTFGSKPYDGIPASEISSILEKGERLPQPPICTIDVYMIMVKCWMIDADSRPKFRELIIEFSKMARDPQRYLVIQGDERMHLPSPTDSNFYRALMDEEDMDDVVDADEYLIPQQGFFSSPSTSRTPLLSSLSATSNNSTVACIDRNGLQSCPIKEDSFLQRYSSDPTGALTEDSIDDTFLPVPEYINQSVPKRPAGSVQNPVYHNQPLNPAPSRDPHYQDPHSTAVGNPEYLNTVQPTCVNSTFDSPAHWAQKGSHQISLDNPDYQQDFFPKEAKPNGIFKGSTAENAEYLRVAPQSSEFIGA
T5 sequence (P00533 with tags, fused parts or gaps INS769ASV): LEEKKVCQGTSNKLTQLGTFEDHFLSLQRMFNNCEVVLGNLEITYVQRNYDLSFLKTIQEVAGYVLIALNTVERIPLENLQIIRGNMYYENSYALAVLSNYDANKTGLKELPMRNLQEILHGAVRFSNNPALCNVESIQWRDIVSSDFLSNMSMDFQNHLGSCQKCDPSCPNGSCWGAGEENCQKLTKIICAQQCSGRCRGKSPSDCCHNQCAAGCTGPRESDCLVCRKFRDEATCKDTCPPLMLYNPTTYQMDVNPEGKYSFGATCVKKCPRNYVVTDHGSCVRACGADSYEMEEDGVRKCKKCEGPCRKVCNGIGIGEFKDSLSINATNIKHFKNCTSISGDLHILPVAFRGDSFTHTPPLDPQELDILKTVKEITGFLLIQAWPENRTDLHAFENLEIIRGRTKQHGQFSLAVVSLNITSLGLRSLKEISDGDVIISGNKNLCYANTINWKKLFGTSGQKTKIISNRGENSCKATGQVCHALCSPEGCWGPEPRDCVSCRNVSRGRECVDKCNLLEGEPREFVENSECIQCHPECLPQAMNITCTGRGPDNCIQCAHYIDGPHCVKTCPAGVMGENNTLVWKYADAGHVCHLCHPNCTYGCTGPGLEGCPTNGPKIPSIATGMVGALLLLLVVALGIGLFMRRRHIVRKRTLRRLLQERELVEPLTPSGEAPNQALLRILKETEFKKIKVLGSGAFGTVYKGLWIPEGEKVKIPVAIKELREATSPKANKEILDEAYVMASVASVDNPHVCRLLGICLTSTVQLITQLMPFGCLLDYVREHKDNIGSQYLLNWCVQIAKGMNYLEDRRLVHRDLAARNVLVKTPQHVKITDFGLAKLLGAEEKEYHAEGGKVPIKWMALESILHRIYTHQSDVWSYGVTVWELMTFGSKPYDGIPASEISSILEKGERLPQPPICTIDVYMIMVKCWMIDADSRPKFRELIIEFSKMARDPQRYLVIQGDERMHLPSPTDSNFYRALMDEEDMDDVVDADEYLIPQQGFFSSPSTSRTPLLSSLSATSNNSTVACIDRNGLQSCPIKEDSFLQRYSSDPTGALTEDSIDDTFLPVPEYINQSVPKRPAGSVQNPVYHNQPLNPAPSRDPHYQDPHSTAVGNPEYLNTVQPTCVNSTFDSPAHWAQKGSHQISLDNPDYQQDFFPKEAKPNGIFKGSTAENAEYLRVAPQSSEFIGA
T3 sequence (P00533 25-1210 T790M/L858R): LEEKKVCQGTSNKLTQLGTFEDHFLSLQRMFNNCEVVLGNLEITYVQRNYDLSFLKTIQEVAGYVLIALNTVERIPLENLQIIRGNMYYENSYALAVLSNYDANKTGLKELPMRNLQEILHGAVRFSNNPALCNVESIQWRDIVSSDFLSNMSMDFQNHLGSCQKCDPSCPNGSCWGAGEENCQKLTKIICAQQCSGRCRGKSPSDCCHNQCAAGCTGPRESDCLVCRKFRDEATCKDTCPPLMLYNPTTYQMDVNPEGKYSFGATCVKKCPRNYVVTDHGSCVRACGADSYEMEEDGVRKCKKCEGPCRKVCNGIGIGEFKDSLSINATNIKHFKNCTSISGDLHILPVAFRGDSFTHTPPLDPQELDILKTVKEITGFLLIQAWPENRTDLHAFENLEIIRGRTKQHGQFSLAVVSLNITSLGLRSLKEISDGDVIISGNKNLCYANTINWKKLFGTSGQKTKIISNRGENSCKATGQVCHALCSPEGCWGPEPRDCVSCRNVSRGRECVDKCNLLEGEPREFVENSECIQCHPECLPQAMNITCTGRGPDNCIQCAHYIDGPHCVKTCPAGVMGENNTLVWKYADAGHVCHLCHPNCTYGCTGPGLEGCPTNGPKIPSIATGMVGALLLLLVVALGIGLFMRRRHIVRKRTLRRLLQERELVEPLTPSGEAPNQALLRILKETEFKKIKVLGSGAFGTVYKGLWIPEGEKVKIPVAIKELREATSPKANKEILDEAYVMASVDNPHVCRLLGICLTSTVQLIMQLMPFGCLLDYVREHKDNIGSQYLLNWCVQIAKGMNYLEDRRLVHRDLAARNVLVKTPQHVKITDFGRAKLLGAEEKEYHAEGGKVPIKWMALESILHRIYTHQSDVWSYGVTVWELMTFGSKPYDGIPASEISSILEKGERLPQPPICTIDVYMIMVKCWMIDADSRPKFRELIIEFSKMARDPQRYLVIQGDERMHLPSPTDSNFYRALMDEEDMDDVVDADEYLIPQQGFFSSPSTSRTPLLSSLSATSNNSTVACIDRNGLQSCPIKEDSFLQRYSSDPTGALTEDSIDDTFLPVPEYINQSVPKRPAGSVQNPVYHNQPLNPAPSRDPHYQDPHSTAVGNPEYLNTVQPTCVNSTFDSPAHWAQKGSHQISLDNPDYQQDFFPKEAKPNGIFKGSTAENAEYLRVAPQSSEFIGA

Structure (SMILES)	pIC50 [1]	pIC50 [4]	pIC50 [5]	EGFR exon 19 deletion and exon 20 T790M mutation IC50 [2]	EGFR exon 21 L858R and exon 20 T790M mutation IC50 [3]
C=CC(=O)Nc1cc(Nc2ncc(Cl)c(-c3cn4c5c(cccc35)OCC4)n2)c(OC)cc1O[C@@H](COCC)CN(C)C [Example 80, (R)-N-(5-((5-chloro-4-(2,3-dihydro-[1,4]oxazino[2,3,4-hi]indol-6-yl)pyrimidin-2-yl)amino)-2-((1-(dimethylamino)-3-ethoxypropan-2-yl)oxy)-4-methoxyphenyl)acrylamide]	> 7.00	6.30 to 7.00		A (IC50 value for the indicated mutant below about 100 nM)	A (IC50 value for the indicated mutant below about 100 nM)
C=CC(=O)Nc1cc(Nc2ncc(Cl)c(-c3cn4c5c(cccc35)OCC4)n2)c(OC)cc1O[C@H](COCC)CN(C)C [Example 81, (S)-N-(5-((5-chloro-4-(2,3-dihydro-[1,4]oxazino[2,3,4-hi]indol-6-yl)pyrimidin-2-yl)amino)-2-((1-(dimethylamino)-3-ethoxypropan-2-yl)oxy)-4-methoxyphenyl)acrylamide]	> 7.00	6.30 to 7.00		A (IC50 value for the indicated mutant below about 100 nM)	A (IC50 value for the indicated mutant below about 100 nM)
C=CC(=O)Nc1cc(Nc2ncc(Cl)c(-c3cn4c5c(cccc35)CCC4)n2)c(Cl)cc1N(C)CCN(C)C [Example 12, N-(4-chloro-5-((5-chloro-4-(5,6-dihydro-4H-pyrrolo[3,2,1-ij]quinolin-1-yl)pyrimidin-2-yl)amino)-2-((2-(dimethylamino)ethyl)(methyl)amino)phenyl)acrylamide]	> 7.00	6.30 to 7.00		A (IC50 value for the indicated mutant below about 100 nM)	A (IC50 value for the indicated mutant below about 100 nM)
C=CC(=O)Nc1cc(Nc2ncc(N(C)S(C)(=O)=O)c(-c3cn4c5c(cccc35)CCC4)n2)c(OC)cc1N(C)CCN(C)C [Example 59, N-(5-((4-(5,6-dihydro-4H-pyrrolo[3,2,1-ij]quinolin-1-yl)-5-(N-methylmethylsulfonamido)pyrimidin-2-yl)amino)-2-((2-(dimethylamino)ethyl)(methyl)amino)-4-methoxyphenyl)acrylamide]	< 6.00	< 6.00	< 6.00	D (IC50 value for the indicated mutant greater than about 1 μM)	
C=CC(=O)Nc1cc(Nc2ncc(-c3cnn(CC)c3)c(-c3cn4c5c(cccc35)CCC4)n2)c(OC)cc1N(C)CCN(C)C [Example 99]	> 7.00	> 7.00	> 7.00	A (IC50 value for the indicated mutant below about 100 nM)	
C=CC(=O)Nc1cc(Nc2ncc(/C=C/C#N)c(-c3cn4c5c(cccc35)CCC4)n2)c(OC)cc1N(C)CCN(C)C [Example 42, (E)-N-(5-((5-(2-cyanovinyl)-4-(5,6-dihydro-4H-pyrrolo[3,2,1-ij]quinolin-1-yl)pyrimidin-2-yl)amino)-2-((2-(dimethylamino)ethyl)(methyl)amino)-4-methoxyphenyl)acrylamide]	> 7.00	> 7.00	> 7.00	A (IC50 value for the indicated mutant below about 100 nM)	
C=CC(=O)Nc1cc(Nc2ncc(Cl)c(-c3cn4c5c(cccc35)CCC4)n2)c(CC)cc1N(C)CCN(C)C [Example 18, N-(5-((5-chloro-4-(5,6-dihydro-4H-pyrrolo[3,2,1-ij]quinolin-1-yl)pyrimidin-2-yl)amino)-2-((2-(dimethylamino)ethyl)(methyl)amino)-4-ethylphenyl)acrylamide]	> 7.00	6.30 to 7.00	> 7.00	A (IC50 value for the indicated mutant below about 100 nM)	
C=CC(=O)Nc1cc(Nc2ncc(OCC(C)O)c(-c3cn4c5c(cccc35)CCC4)n2)c(OC)cc1N(C)CCN(C)C (centres unmarked) [Example 51, N-(5-((4-(5,6-dihydro-4H-pyrrolo[3,2,1-ij]quinolin-1-yl)-5-(2-hydroxypropoxy)pyrimidin-2-yl)amino)-2-((2-(dimethylamino)ethyl)(methyl)amino)-4-methoxyphenyl)acrylamide]	> 7.00	6.30 to 7.00	> 7.00	A (IC50 value for the indicated mutant below about 100 nM)	

Further lines, with some results ahead:

pIC50 [1]	pIC50 [4]	pIC50 [5]	Structure (SMILES)	EGFR exon 19 deletion and exon 20 T790M mutation IC50 [2]	EGFR exon 21 L858R and exon 20 T790M mutation IC50 [3]
6.30 to 7.00	6.30 to 7.00		C=CC(=O)Nc1cc(Nc2ncc(Cl)c(-c3cn4c5c(cccc35)CCC4)n2)c(OC)cc1O[C@H](COCC)CN(C)C [Example 23, (S)-N-(5-((5-chloro-4-(5,6-dihydro-4H-pyrrolo[3,2,1-ij]quinolin-1-yl)pyrimidin-2-yl)amino)-2-((1-(dimethylamino)-3-ethoxypropan-2-yl)oxy)-4-methoxyphenyl)acrylamide]	A (IC50 value for the indicated mutant below about 100 nM)	A (IC50 value for the indicated mutant below about 100 nM)
> 7.00	6.30 to 7.00	6.30 to 7.00	C=CC(=O)Nc1cc(Nc2ncc(C(CC)OC)c(-c3cn4c5c(cccc35)CCC4)n2)c(OC)cc1N(C)CCN(C)C (centres unmarked) [Example 87]	A (IC50 value for the indicated mutant below about 100 nM)	
> 7.00	> 7.00	> 7.00	C=CC(=O)Nc1cc(Nc2ncc(-c3nc(C)no3)c(-c3cn4c5c(cccc35)CCC4)n2)c(OC)cc1N(C)CCN(C)C [Example 86]	A (IC50 value for the indicated mutant below about 100 nM)	
> 7.00	> 7.00	> 7.00	C=CC(=O)Nc1cc(Nc2ncc(-c3ncco3)c(-c3cn4c5c(cccc35)CCC4)n2)c(OC)cc1N(C)CCN(C)C [Example 62, N-(5-((4-(5,6-dihydro-4H-pyrrolo[3,2,1-ij]quinolin-1-yl)-5-(oxazol-2-yl)pyrimidin-2-yl)amino)-2-((2-(dimethylamino)ethyl)(methyl)amino)-4-methoxyphenyl)acrylamide]	A (IC50 value for the indicated mutant below about 100 nM)	
> 7.00	6.30 to 7.00	> 7.00	C=CC(=O)Nc1cc(Nc2ncc(SCCO)c(-c3cn4c5c(cccc35)CCC4)n2)c(OC)cc1N(C)CCN(C)C [Example 58, N-(5-((4-(5,6-dihydro-4H-pyrrolo[3,2,1-ij]quinolin-1-yl)-5-((2-hydroxyethyl)thio)pyrimidin-2-yl)amino)-2-((2-(dimethylamino)ethyl)(methyl)amino)-4-methoxyphenyl)acrylamide]	A (IC50 value for the indicated mutant below about 100 nM)	
> 7.00	6.30 to 7.00	> 7.00	C=CC(=O)Nc1cc(Nc2ncc(CCC(C)O)c(-c3cn4c5c(cccc35)CCC4)n2)c(OC)cc1N(C)CCN(C)C (centres unmarked) [Example 32, N-(5-((4-(5,6-dihydro-4H-pyrrolo[3,2,1-ij]quinolin-1-yl)-5-(3-hydroxybutyl)pyrimidin-2-yl)amino)-2-((2-(dimethylamino)ethyl)(methyl)amino)-4-methoxyphenyl)acrylamide]	A (IC50 value for the indicated mutant below about 100 nM)	
